Source: patent US20230104936A1, “TRPML MODULATORS” (Casma Therapeutics, Inc., priority 2019, published 2023)

Tested on: TFEB
Test: TFEB nuclear translocation assay, HeLa wt cells
Assay type: cell-based
Details: 2 hrs compound treatment, Table 1 does not say HeLa wt or TRPML1 KO
Protocol: For the TFEB nuclear translocation assay, HeLa wt or HeLa TRPML1 KO cells were plated at 2700 cells/well into black-walled, 384-well Cell carrier Ultra tissue culture treated plates in complete media and incubated overnight. The next day, cells are treated for 2 hrs with compounds and incubated at 37° C. Cells were then fixed for 30 minutes at room temperature in 4% final PFA and washed five times with 90 μL PBS. PBS is aspirated from the wells and the cells are blocked with 7.5 μL blocking buffer (1:1 PBS/Odyssey block buffer containing 0.1% triton x-100 and 1% goat serum). After 30-60 minutes of block, 7.5 μL of primary anti-TFEB (rabbit) antibody is added for a final dilution of 1:200 antibody in 15 μL blocking buffer. Plates are incubated overnight at 4° C. The following day, plates are washed again into PBS, 90 μL with 5 washes, all PBS is aspirated from the wells and the cells are incubated for 1 hr in 1:1000 goat-anti rabbit Alexa 488 secondary antibody, also containing 10 μg/mL Hoechst 33342. After the 1 hr room temperature incubation, plates are washed a final time into PBS, sealed with foil and imaged with an automated epifluorescence microscopy (PerkinElmer Operetta CLS). Four different fields were imaged per well using ×20 magnification for DAPI and FITC filter sets. Images were quantified using PerkinElmer Harmony software, briefly: apply flatfield correction (basic/advanced) for input images. Use the Find Nuclei building block with channel set at Hoechst to find the nuclei. Use the Find cytoplasm building block with channel set to Alexa 488 to find the cytoplasm. Use select cell region with Channel set at Alexa 488 and region of interest as Nuclei and define outer border at 0 μm and inner at 45 μm to cover complete nuclei. Use select cell region with Channel set at Alexa 488 and region of interest as ring region and define outer border at −5 μm and inner at 0 μm to define a ring around the nucleus. Use the find calculate intensity parameter to calculate intensity of the nuclear region and the ring region. Define results as Number of nuclei and ratio of A/B where A is Intensity of Nuclei and B is intensity of the ring region.
The compound numbers correspond to the compound numbers above in Tables A or B. Compounds having an activity designated as “++++” provided an AC50 of ≤2.00 μM; compounds having an activity designated as “+++” provided an AC50 of 2.01-8.00 μM; compounds having an activity designated as “++” provided an AC50 of 8.01-9.99 μM; and compounds having an activity designated as “+” provided an AC50 of ≥10.00 μM.

SMILES | AC50 (Homo sapiens, HeLa, 2 h) [nM] | AC50 [nM]
CN1CC2CN(c3ccccc3NS(=O)(=O)c3ccc(S(=O)(=O)N(C)C)cc3)CC2C1 (stereo not drawn) [Compound A-58, N1,N1-dimethyl-N4-(2-{5-methyl-octahydropyrrolo[3,4-c]pyrrol-2-yl}phenyl)benzene-1,4-disulfonamide] | ≥ 10000 | –
CC(c1cccc(F)c1N1CCC(C)(C(F)F)CC1)S(=O)(=O)c1ccc(S(=N)(=O)N(C)C)cc1 (single isomer, unassigned) [Compound A-974, 4-((1-(2-(4-(difluoromethyl)-4-methylpiperidin-1-yl)-3-fluorophenyl)ethyl)sulfonyl)-N,N-dimethylbenzenesulfonimidamide] | – | ≤ 2000
CN(C)S(=O)(=O)c1ccc(S(=O)(=O)Nc2ccccc2N2CCC(C3COCCO3)CC2)cc1 (stereo not drawn) [Compound A-437, N4-{2-[4-(1,4-dioxan-2-yl)piperidin-1-yl]phenyl}-N1,N1-dimethylbenzene-1,4-disulfonamide] | 2010 to 8000 | –
CN(C)S(=O)(=O)c1ccc(S(=O)(=O)Nc2ccccc2N2CCC(C3CCCO3)CC2)cc1 (stereo not drawn) [Compound A-419, N1,N1-dimethyl-N4-{2-[4-(oxolan-2-yl)piperidin-1-yl]phenyl}benzene-1,4-disulfonamide] | ≤ 2000 | –
CC1(C)CC2(CCN(c3ccccc3NS(=O)(=O)c3ccc(C4CC4)cc3)CC2)CO1 [Compound A-672, 4-cyclopropyl-N-(2-{3,3-dimethyl-2-oxa-8-azaspiro[4.5]decan-8-yl}phenyl)benzene-1-sulfonamide] | ≤ 2000 | –
C[C@@H]1CN(CC2CCN(c3c(C#N)cccc3NS(=O)(=O)c3ccc(S(=O)(=O)N(C)C)cc3)CC2)C[C@H](C)O1 [Compound A-878, N4-[3-cyano-2-(4-{[(2R,6S)-2,6-dimethylmorpholin-4-yl]methyl}piperidin-1-yl)phenyl]-N1,N1-dimethylbenzene-1,4-disulfonamide] | ≤ 2000 | –
Cn1nccc1S(=O)(=O)Nc1ccccc1N1CCN(c2ccc(Cl)cc2F)CC1 [Compound A-15, N-{2-[4-(4-chloro-2-fluorophenyl)piperazin-1-yl]phenyl}-1-methyl-1H-pyrazole-5-sulfonamide] | ≥ 10000 | –
O=S(=O)(Nc1cc(Cl)ccc1N1CCN(c2ccc(Cl)cc2F)CC1)c1ccc2c(c1)CCC2 [Compound A-291, N-{5-chloro-2-[4-(4-chloro-2-fluorophenyl)piperazin-1-yl]phenyl}-2,3-dihydro-1H-indene-5-sulfonamide] | ≤ 2000 | –
Cc1nn(S(=O)(=O)c2ccc(S(=O)(=O)N(C)C)cc2)cc1C1=CCN(c2ccc(Cl)cc2F)CC1 [Compound A-37, 4-({4-[1-(4-chloro-2-fluorophenyl)-1,2,3,6-tetrahydropyridin-4-yl]-3-methyl-1H-pyrazol-1-yl}sulfonyl)-N,N-dimethylbenzene-1-sulfonamide] | 2010 to 8000 | –
CS(=O)(=O)c1ccc(S(=O)(=O)Nc2ccccc2N2CCC3(CC2)CN(CC2CC2(F)F)c2cc(F)ccc23)cc1 (stereo not drawn) [Compound A-468, N-(2-{1-[(2,2-difluorocyclopropyl)methyl]-6-fluoro-1,2-dihydrospiro[indole-3,4′-piperidin]-1′-yl}phenyl)-4-methanesulfonylbenzene-1-sulfonamide] | ≤ 2000 | –
O=S(=O)(Nc1ccccc1N1CCC(c2ccc(Cl)cc2F)CC1)c1ccccc1Cl [Compound A-76, 2-chloro-N-{2-[4-(4-chloro-2-fluorophenyl)piperidin-1-yl]phenyl}benzene-1-sulfonamide] | ≥ 10000 | –
COCCS(=O)(=O)c1ccc(S(=O)(=O)Nc2ccccc2N2CCC(c3ccc(Cl)cc3F)CC2)cc1 [Compound A-701, N-{2-[4-(4-chloro-2-fluorophenyl)piperidin-1-yl]phenyl}-4-(2-methoxyethanesulfonyl)benzene-1-sulfonamide] | ≤ 2000 | –
CC1(C)CC2(CCN(c3ccccc3NS(=O)(=O)C3=Cc4ccccc4CC3)CC2)CO1 [Compound A-676, N-(2-{3,3-dimethyl-2-oxa-8-azaspiro[4.5]decan-8-yl}phenyl)-3,4-dihydronaphthalene-2-sulfonamide] | 2010 to 8000 | –
COCC1(C)CCN(c2ccccc2NS(=O)(=O)c2ccc(OC(F)(F)F)cc2)CC1 [Compound A-622, N-{2-[4-(methoxymethyl)-4-methylpiperidin-1-yl]phenyl}-4-(trifluoromethoxy)benzene-1-sulfonamide] | 2010 to 8000 | –
CC(c1ccccc1N1CCC2(CC1)COC(C)(C)C2)S(=O)(=O)Cc1ccccc1 (stereo not drawn) [Compound A-751, 3,3-dimethyl-8-[2-(1-phenylmethanesulfonylethyl)phenyl]-2-oxa-8-azaspiro[4.5]decane] | ≥ 10000 | –
CN1C(=O)C2(CCN(c3ccccc3NS(=O)(=O)c3ccc(S(=O)(=O)N(C)C)cc3)CC2)c2cccnc21 [Compound A-282, N1,N1-dimethyl-N4-(2-{1′-methyl-2′-oxo-1′,2′-dihydrospiro[piperidine-4,3′-pyrrolo[2,3-b]pyridin]-1-yl}phenyl)benzene-1,4-disulfonamide] | 2010 to 8000 | –
CN(CCO)S(=O)(=O)c1ccc(S(=O)(=O)Nc2ccccc2N2CCC(c3c(F)cccc3F)CC2)cc1 [Compound A-223, N4-{2-[4-(2,6-difluorophenyl)piperidin-1-yl]phenyl}-N1-(2-hydroxyethyl)-N1-methylbenzene-1,4-disulfonamide] | 2010 to 8000 | –
CC1(C)CC2(CCN(c3ccccc3NS(=O)(=O)c3cccc(C4OCCO4)c3)CC2)CO1 [Compound A-670, N-(2-{3,3-dimethyl-2-oxa-8-azaspiro[4.5]decan-8-yl}phenyl)-3-(1,3-dioxolan-2-yl)benzene-1-sulfonamide] | 2010 to 8000 | –
CC(C)c1ccc(S(=O)(=O)Nc2ccccc2N2CCC3(CC2)COC(C)(C)C3)cc1 [Compound A-658, N-(2-{3,3-dimethyl-2-oxa-8-azaspiro[4.5]decan-8-yl}phenyl)-4-(propan-2-yl)benzene-1-sulfonamide] | ≤ 2000 | –
COCCOCCOCCOc1ccc(S(=O)(=O)Nc2ccccc2N2CCC(c3ccc(Cl)cc3F)CC2)cc1 [Compound A-588, N-{2-[4-(4-chloro-2-fluorophenyl)piperidin-1-yl]phenyl}-4-{2-[2-(2-methoxyethoxy)ethoxy]ethoxy}benzene-1-sulfonamide] | ≤ 2000 | –
CN(C)S(=O)(=O)c1ccc(S(=O)(=O)Nc2ccccc2N2CCN(CC(F)(F)F)CC2)cc1 [Compound A-560, N1,N1-dimethyl-N4-{2-[4-(2,2,2-trifluoroethyl)piperazin-1-yl]phenyl}benzene-1,4-disulfonamide] | ≤ 2000 | –
COCC1(C(F)(F)F)CCN(c2ccccc2NS(=O)(=O)c2ccc(S(=O)(=O)N(C)C)cc2)CC1 [Compound A-777, N4-2-[4-(methoxymethyl)-4-(trifluoromethyl)piperidin-1-yl]phenyl-N1,N1-dimethylbenzene-1,4-disulfonamide] | ≤ 2000 | –
COc1ccc(S(=O)(=O)Nc2cnccc2N2CCC(c3ncc(F)cc3F)CC2)cc1 [Compound A-193, N-{4-[4-(3,5-difluoropyridin-2-yl)piperidin-1-yl]pyridin-3-yl}-4-methoxybenzene-1-sulfonamide] | ≥ 10000 | –
CN(C)S(=N)(=O)c1ccc(S(=O)(=O)Nc2cccc(F)c2N2CCC(CN3CC4CCC(C3)O4)CC2)cc1 (stereo not drawn) [Compound A-844, 4-({3-fluoro-2-[4-({8-oxa-3-azabicyclo[3.2.1]octan-3-yl}methyl)piperidin-1-yl]phenyl}sulfamoyl)-N,N-dimethylbenzene-1-sulfonoimidamide] | ≤ 2000 | –
CC1(C)CC2(CCN(c3ccccc3NS(=O)(=O)c3ccc4c(c3)OC(C)(C)C4)CC2)CO1 [Compound A-720, N-(2-{3,3-dimethyl-2-oxa-8-azaspiro[4.5]decan-8-yl}phenyl)-2,2-dimethyl-2,3-dihydro-1-benzofuran-6-sulfonamide] | 2010 to 8000 | –
CN(C)S(=O)(=O)c1ccc(S(=O)(=O)C(c2cccc(F)c2N2CCCCC2)C2CC2)cc1 (single isomer, unassigned) [Compound A-982, 4-((cyclopropyl(3-fluoro-2-(piperidin-1-yl)phenyl)methyl)sulfonyl)-N,N-dimethylbenzenesulfonamide] | ≤ 2000 | –
C[C@@H]1CN(CC2CCN(c3c(F)cccc3[C@@H](C)S(=O)(=O)c3ccc(S(=O)(=O)N(C)C)cc3)CC2)C[C@H](C)O1 [Compound A-782, 4-[(1R)-1-[2-(4-{[(2R,6S)-2,6-dimethylmorpholin-4-yl]methyl}piperidin-1-yl)-3-fluorophenyl]ethanesulfonyl]-N,N-dimethylbenzene-1-sulfonamide] | ≤ 2000 | –
